The source of these data is patent US10435396B2, “2-substituted indazoles, methods for producing same, pharmaceutical preparations that contain same, and use of same to produce drugs” (Bayer Pharma Aktiengesellschaft, priority 2016, dated 2019).

One test addresses human IRAK4 (Homo sapiens (Human), UniProt Q9NWZ3). As to the kind of experiment: IRAK4 kinase assay (IRAK4 TR-FRET assay). The test is classed as biochemical. The note with it: 1 mM ATP. How it is done:
The IRAK4-inhibitory activity of the substances according to the invention was measured in the IRAK4 TR-FRET assay (TR-FRET=Time Resolved Fluorescence Resonance Energy Transfer) described hereinafter.
Recombinant fusion protein from N-terminal GST (glutathione S-transferase) and human IRAK4, expressed in baculovirus-infected insect cells (Hi5, BTI-TN-5B1-4, cell line purchased from Invitrogen, catalogue No. B855-02) and purified via affinity chromatography, was used as enzyme. The substrate used for the kinase reaction was the biotinylated peptide biotin-Ahx-[…] (C-terminus in amide form) which can be purchased, for example, from Biosyntan GmbH (Berlin-Buch).
For the assay, 11 different concentrations in the range from 20 μM to 0.073 nM were prepared from a 2 mM solution of the test substance in DMSO. 50 nl of the respective solution were pipetted into a black low-volume 384-well microtitre plate (Greiner Bio-One, Frickenhausen, Germany), 2 μl of a solution of IRAK4 in assay buffer [50 mM HEPES pH 7.5, 5 mM MgCl2, 1.0 mM dithiothreitol, 30 μM activated sodium orthovanadate, 0.1% (w/v) of bovine gamma-globulin (BGG) 0.04% (v/v) nonidet-P40 (Sigma)] were added and the mixture was incubated for 15 min to allow prebinding of the substances to the enzyme prior to the kinase reaction. The kinase reaction was then started by addition of 3 μl of a solution of adenosine triphosphate (ATP, 1.67 mM=final concentration in 5 μl of assay volume: 1 mM) and peptide substrate (0.83 μM=final concentration in 5 μl assay volume: 0.5 μM) in assay buffer, and the resulting mixture was incubated at 22° C. for the reaction time of 45 min. The concentration of the IRAK4 was adjusted to the respective activity of the enzyme and set such that the assay was carried out in the linear range. Typical concentrations were in the order of about 0.2 nM. The reaction was stopped by addition of 5 μl of a solution of TR-FRET detection reagents [0.1 μM streptavidin-XL665 (Cisbio Bioassays; France, catalogue No. 610SAXLG)] and 1.5 nM anti-phosphoserine antibody [Merck Millipore, “STK Antibody”, catalogue No. 35-002] and 0.6 nM LANCE EU-W1024-labelled anti-mouse-IgG antibody (Perkin-Elmer, product No. AD0077; alternatively, it is possible to use a terbium cryptate-labelled anti-mouse-IgG antibody from Cisbio Bioassays) in aqueous EDTA solution (100 mM EDTA, 0.4% [w/v] bovine serum albumin [BSA] in 25 mM HEPES pH 7.5).
The resulting mixture was incubated at 22° C. for 1 h to allow formation of a complex of the biotinylated phosphorylated substrate and the detection reagents. The amount of the phosphorylated substrate was then evaluated by measuring the resonance energy transfer from europium chelate-labelled anti-mouse-IgG antibody to streptavidin-XL665. To this end, the fluorescence emissions at 620 nm and 665 nm were measured after excitation at 350 nm in a TR-FRET measuring instrument, for example a Rubystar (BMG Labtechnologies, Offenburg, Germany) or a Viewlux (Perkin-Elmer). The ratio of the emissions at 665 nm and 622 nm was taken as a measure of the amount of phosphorylated substrate. The data were normalized (enzyme reaction without test substance=0% inhibition; all other assay components but no enzyme=100% inhibition). Typically, the test substances were tested on the same microtitre plates at 11 different concentrations in the range from 20 μM to 0.073 nM (20 μM, 5.7 μM, 1.6 μM, 0.47 μM, 0.13 μM, 38 nM, 11 nM, 3.1 nM, 0.89 nM, 0.25 nM and 0.073 nM). The dilution series were prepared prior to the assay (2 mM to 7.3 nM in 100% DMSO) by serial dilutions. The IC50 values were calculated using a 4-parameter fit.

Test [1] concerns secretion of TNF-α in THP-1 cells. As to the kind of experiment: TNF-α secretion in THP-1 cells (LPS-triggered). The test is classed as cell-based, human. The note with it: Homo sapiens, THP-1, 17 h, LPS 0.05 μg/ml, read-out: IC50 with respect to the secretion of TNF-α in THP-1 cells. Here is the method: TNF-α Secretion in THP-1 Cells
With the aid of this test, it is possible to test substances for their ability to inhibit secretion of TNF-α (tumour necrosis factor alpha) in THP-1 cells (human monocytic acute leukaemia cell line). TNF-α is a cytokine involved in inflammatory processes. In this test, TNF-α secretion is triggered by incubation with bacterial lipopolysaccharide (LPS).
THP-1 cells are kept in continuous suspension cell culture [RPMI 1460 medium with L-Glutamax (Gibco, Cat No. 61870-044) supplemented with foetal calf serum (FCS) 10% (Invitrogen, Cat No. 10082-147), 1% penicillin/streptomycin (Gibco BRL, Cat No. 15140-114)] and should not exceed a cell concentration of 1×10^6 cells/ml. The assay is carried out in cell culture medium (RPMI 1460 medium with L-Glutamax supplemented with FCS 10%).
In each case 2-2.5 μl of the cell suspension (corresponds to 4000 cells) per well were dispensed into a 384-well test plate (Greiner, Cat No. 784076), in each of which 40-50 nl substance had been dissolved in 100% DMSO. This was done using […] in the range from 20 μM to 0.073 nM for each substance. The cells were incubated at room temperature for 15 min. 2-2.5 μl of 0.1 μg/ml LPS (Sigma, Escherichia coli 055:B5, Cat. No. L5418) dissolved in cell culture medium (final concentration 0.05 μg/ml) were then dispensed into each well. As neutral control, cells were treated with 0.05 μg/ml LPS and 1% DMSO and, as inhibitor control, with 1% DMSO only.
The plates were centrifuged at 80 g for 30 s and incubated at 37° C., 5% CO2 and 95% atmospheric humidity for 17 h. The amount of TNF-α was determined using the TNF-alpha HTRF Detection Kit (Cisbio, Cat No. 62TNFPEB/C). To this end, 2 μl of the detection solution in each case, consisting of anti-TNF-α-XL665 conjugate and anti-TNF-α-cryptate conjugate dissolved in the reconstitution buffer in accordance with the manufacturer's instructions, were added for the HTRF (Homogeneous Time-Resolved Fluorescence) test. After the addition, the mixture was incubated either at room temperature for 3 h or at 4° C. overnight. The signals were then read at 620/665 nm using an HTRF-enabled measuring instrument such as the BMG PheraStar.
The activity of the substances is expressed as the ratio between neutral and inhibitor control in percent. The IC50 values were calculated using a 4-parameter fit.

Chain of human IRAK4 (Q9NWZ3 whole entry): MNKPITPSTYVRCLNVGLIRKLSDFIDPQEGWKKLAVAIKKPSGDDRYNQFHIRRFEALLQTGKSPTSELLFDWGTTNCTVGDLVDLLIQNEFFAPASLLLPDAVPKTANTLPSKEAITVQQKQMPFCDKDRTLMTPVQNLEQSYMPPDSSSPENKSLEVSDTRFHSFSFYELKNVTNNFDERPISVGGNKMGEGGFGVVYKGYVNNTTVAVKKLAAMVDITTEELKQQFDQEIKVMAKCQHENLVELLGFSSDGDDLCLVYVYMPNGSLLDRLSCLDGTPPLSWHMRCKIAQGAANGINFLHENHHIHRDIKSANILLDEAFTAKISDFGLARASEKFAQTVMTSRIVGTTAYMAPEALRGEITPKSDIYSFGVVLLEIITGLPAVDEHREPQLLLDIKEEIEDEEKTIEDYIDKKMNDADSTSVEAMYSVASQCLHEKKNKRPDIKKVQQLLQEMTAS

With `O=C(Nc1cc2cn(C3CCS(=O)(=O)CC3)nc2cc1OCC1CC1)c1cccc(C(F)(F)F)n1` [Example 17, N-[6-(Cyclopropylmethoxy)-2-(1,1-dioxidotetrahydro-2H-thiopyran-4-yl)-2H-indazol-5-yl]-6-(trifluoromethyl)pyridine-2-carboxamide], the IC50 (usually the concentration that inhibits the measured activity by half) against human IRAK4 was found to be 20 nM; in test [1] it was 110 nM.

For the compound `COc1cc2nn(C3CNC(=O)C3)cc2cc1NC(=O)c1cccc(C(F)(F)F)n1` (centres unmarked) [Example 22, N-[6-Methoxy-2-(5-oxopyrrolidin-3-yl)-2H-indazol-5-yl]-6-(trifluoromethyl)pyridine-2-carboxamide], the values for the half-maximal inhibitory concentration (IC50) (against human IRAK4; in test [1]) were 13 nM and 150 nM, respectively.

On to `COc1cc2nn(C3CCOCC3)cc2cc1NC(=O)c1csc(C)n1` [Example 25, N-[6-Methoxy-2-(tetrahydro-2H-pyran-4-yl)-2H-indazol-5-yl]-2-methyl-1,3-thiazole-4-carboxamide], for which the figures for the half-maximal inhibitory concentration (IC50) (on human IRAK4; in test [1]) were 10 nM and 840 nM, respectively.

As for `COc1cc2nn(C3CCOCC3)cc2cc1NC(=O)c1cccc(N)n1` [Example 26, 6-Amino-N-[6-methoxy-2-(tetrahydro-2H-pyran-4-yl)-2H-indazol-5-yl]pyridine-2-carboxamide], the IC50 against human IRAK4 worked out at 6 nM; in test [1], 220 nM.

For the compound `COc1cc2nn(C3CCOCC3)cc2cc1NC(=O)c1ccnc(C(C)C)n1` [Example 27, 2-Isopropyl-N-[6-methoxy-2-(tetrahydro-2H-pyran-4-yl)-2H-indazol-5-yl]pyrimidine-4-carboxamide], the figures for the IC50 (against human IRAK4; in test [1]) were 111 nM and 1790 nM, respectively.

For `COc1cc2nn(C3CCOC3)cc2cc1NC(=O)c1cccc(C(F)(F)F)n1` (centres unmarked) [Example 29, N-[6-Methoxy-2-(tetrahydrofuran-3-yl)-2H-indazol-5-yl]-6-(trifluoromethyl)pyridine-2-carboxamide], the IC50 stood at 10 nM at human IRAK4 and 630 nM in test [1].

On to `O=C(Nc1cc2cn(C3CCOCC3)nc2cc1Cl)c1cccc(C(F)(F)F)n1` [Example 30, N-[6-Chloro-2-(tetrahydro-2H-pyran-4-yl)-2H-indazol-5-yl]-6-(trifluoromethyl)pyridine-2-carboxamide], for which the results for the IC50 (at human IRAK4; in test [1]) were 47 nM and 280 nM, respectively.

For `O=C(Nc1cc2cn(C3CCOCC3)nc2cc1Cl)c1cccc(C(F)F)n1` [Example 31, N-[6-Chloro-2-(tetrahydro-2H-pyran-4-yl)-2H-indazol-5-yl]-6-(difluoromethyl)pyridine-2-carboxamide], the IC50 was determined as 22 nM on human IRAK4 and 90 nM in test [1].

Regarding `CC(C)(O)c1cccc(C(=O)Nc2cc3cn(C4CCS(=O)(=O)CC4)nc3cc2Cl)n1` [Example 32, N-[6-Chloro-2-(1,1-dioxidotetrahydro-2H-thiopyran-4-yl)-2H-indazol-5-yl]-6-(2-hydroxypropan-2-yl)pyridine-2-carboxamide], the IC50 on human IRAK4 is 34 nM; in test [1] it was 280 nM.

In the case of `COC(=O)c1cc2nn(C3CCOCC3)cc2cc1NC(=O)c1cccc(C(F)(F)F)n1` [Example 33, Methyl 2-(tetrahydro-2H-pyran-4-yl)-5-({[6-(trifluoromethyl)pyridin-2-yl]carbonyl}amino)-2H-indazole-6-carboxylate], the IC50 was 11 nM on human IRAK4 and 1800 nM in test [1].

`CC(C)(O)c1cc2nn(C3CCOCC3)cc2cc1NC(=O)c1cccc(C(F)(F)F)n1` [Example 34, N-[6-(2-Hydroxypropan-2-yl)-2-(tetrahydro-2H-pyran-4-yl)-2H-indazol-5-yl]-6-(trifluoromethyl)pyridine-2-carboxamide]: the figures for the half-maximal inhibitory concentration (IC50) (on human IRAK4; in test [1]) were 6 nM and 230 nM, respectively.

As to `CC(C)(O)c1cc2nn([C@H]3CCOC3)cc2cc1NC(=O)c1cccc(C(F)(F)F)n1` [Example 36, N-{6-(2-Hydroxypropan-2-yl)-2-[(3S)-tetrahydrofuran-3-yl]-2H-indazol-5-yl}-6-(trifluoromethyl)pyridine-2-carboxamide], the IC50 against human IRAK4 was found to be 28 nM; in test [1], 540 nM.

`CC(C)(O)c1cc2nn([C@@H]3CCOC3)cc2cc1NC(=O)c1cccc(C(F)(F)F)n1` [Example 38, N-{6-(2-Hydroxypropan-2-yl)-2-[(3R)-tetrahydrofuran-3-yl]-2H-indazol-5-yl}-6-(trifluoromethyl)pyridine-2-carboxamide]: the IC50 worked out at 31 nM against human IRAK4 and 630 nM in test [1].
